Test results reported in the supplement of paper PMC10307832.

Tests used:
Test in all cases: relative viability (nuclei count vs DMSO), 5 days (fraction); higher = more cells survive
201T = test system: 201T
In short: (§1)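 Cells from lung cancer lines were seeded into 1536-well plates and, one day later, dosed by pin tool. Treatments were either a single drug or a fixed dose of an anchor drug with five library-drug doses (not always all listed) in √10 steps. After 5 days, nuclei were stained in a one-step fixation (final 0.05% Triton X-100, 1% formaldehyde, 1 ug/ml Hoechst) and counted on 4× images, and relative viability is the treated-to-vehicle nuclei ratio, as the median of duplicate plates.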

A-427 = test system: A-427
In short: as §1

BEN = test system: BEN
In short: as §1

COR-L 105 = test system: COR-L 105
In short: as §1

COR-L23 = test system: COR-L23
In short: as §1

EKVX = test system: EKVX
In short: as §1

HARA = test system: HARA
In short: as §1

HCC-15 = test system: HCC-15
In short: as §1

HCC-44 = test system: HCC-44
In short: as §1

HCC-827 = test system: HCC-827
In short: as §1

LK-2 = test system: LK-2
In short: as §1

NCI-H1437 = test system: NCI-H1437
In short: as §1

NCI-H1666 = test system: NCI-H1666
In short: as §1

NCI-H1792 = test system: NCI-H1792
In short: as §1

NCI-H1975 = test system: NCI-H1975
In short: as §1

NCI-H23 = test system: NCI-H23
In short: as §1

NCI-H358 = test system: NCI-H358
In short: as §1

NCI-H441 = test system: NCI-H441
In short: as §1

NCI-H596 = test system: NCI-H596
In short: as §1

NCI-H650 = test system: NCI-H650
In short: as §1

NCI-H838 = test system: NCI-H838
In short: as §1

SK-MES-1 = test system: SK-MES-1
In short: as §1

Oc1nc(-c2ccc(C(F)(F)F)cc2)nc2c1CSCC2 [XAV939] + CS(=O)(=O)N1CCN(Cc2cc3nc(-c4cccc5[nH]ncc45)nc(N4CCOCC4)c3s2)CC1 [Pictilisib] (partner 1 µM)
relative viability (201T; first compound 0.08 µM): 0.673
relative viability (201T; first compound 0.253 µM): 0.593
relative viability (201T; first compound 0.8 µM): 0.583
relative viability (201T; first compound 2.53 µM): 0.525
relative viability (A-427; first compound 0.08 µM): 0.962
relative viability (A-427; first compound 0.253 µM): 0.63
relative viability (A-427; first compound 0.8 µM): 0.596
relative viability (A-427; first compound 2.53 µM): 0.65
relative viability (BEN; first compound 0.08 µM): 0.579
relative viability (BEN; first compound 0.253 µM): 0.472
relative viability (BEN; first compound 0.8 µM): 0.529
relative viability (COR-L 105; first compound 0.08 µM): 0.371
relative viability (COR-L 105; first compound 0.253 µM): 0.304
relative viability (COR-L 105; first compound 0.8 µM): 0.349
relative viability (COR-L 105; first compound 2.53 µM): 0.347
relative viability (COR-L23; first compound 0.08 µM): 1.05
relative viability (COR-L23; first compound 0.253 µM): 0.768
relative viability (COR-L23; first compound 0.8 µM): 0.757
relative viability (COR-L23; first compound 2.53 µM): 0.564
relative viability (EKVX; first compound 0.08 µM): 0.413
relative viability (EKVX; first compound 0.253 µM): 0.301
relative viability (EKVX; first compound 0.8 µM): 0.377
relative viability (EKVX; first compound 2.53 µM): 0.24
relative viability (HARA; first compound 0.08 µM): 0.477
relative viability (HARA; first compound 0.253 µM): 0.386
relative viability (HARA; first compound 0.8 µM): 0.345
relative viability (HARA; first compound 2.53 µM): 0.394
relative viability (HCC-15; first compound 0.08 µM): 0.858
relative viability (HCC-15; first compound 0.253 µM): 0.632
relative viability (HCC-15; first compound 0.8 µM): 0.736
relative viability (HCC-15; first compound 2.53 µM): 0.755
relative viability (HCC-44; first compound 0.08 µM): 0.748
relative viability (HCC-44; first compound 0.253 µM): 0.627
relative viability (HCC-44; first compound 0.8 µM): 0.577
relative viability (HCC-44; first compound 2.53 µM): 0.636
relative viability (HCC-827; first compound 0.08 µM): 1.05
relative viability (HCC-827; first compound 0.253 µM): 1.02
relative viability (HCC-827; first compound 0.8 µM): 1.24
relative viability (HCC-827; first compound 2.53 µM): 1.21
relative viability (LK-2; first compound 0.08 µM): 0.565
relative viability (LK-2; first compound 0.253 µM): 0.505
relative viability (LK-2; first compound 0.8 µM): 0.643
relative viability (LK-2; first compound 2.53 µM): 0.607
relative viability (NCI-H1437; first compound 0.08 µM): 0.436
relative viability (NCI-H1437; first compound 0.253 µM): 0.44
relative viability (NCI-H1437; first compound 0.8 µM): 0.561
relative viability (NCI-H1437; first compound 2.53 µM): 0.234
relative viability (NCI-H1666; first compound 0.08 µM): 0.378
relative viability (NCI-H1666; first compound 0.253 µM): 0.333
relative viability (NCI-H1666; first compound 0.8 µM): 0.279
relative viability (NCI-H1666; first compound 2.53 µM): 0.411
relative viability (NCI-H1792; first compound 0.08 µM): 0.331
relative viability (NCI-H1792; first compound 0.253 µM): 0.254
relative viability (NCI-H1792; first compound 0.8 µM): 0.229
relative viability (NCI-H1792; first compound 2.53 µM): 0.257
relative viability (NCI-H1975; first compound 0.08 µM): 0.258
relative viability (NCI-H1975; first compound 0.253 µM): 0.263
relative viability (NCI-H1975; first compound 0.8 µM): 0.248
relative viability (NCI-H1975; first compound 2.53 µM): 0.207
relative viability (NCI-H23; first compound 0.08 µM): 0.46
relative viability (NCI-H23; first compound 0.253 µM): 0.351
relative viability (NCI-H23; first compound 0.8 µM): 0.33
relative viability (NCI-H23; first compound 2.53 µM): 0.33
relative viability (NCI-H358; first compound 0.08 µM): 0.306
relative viability (NCI-H358; first compound 0.253 µM): 0.232
relative viability (NCI-H358; first compound 0.8 µM): 0.336
relative viability (NCI-H358; first compound 2.53 µM): 0.277
relative viability (NCI-H441; first compound 0.08 µM): 0.605
relative viability (NCI-H441; first compound 0.253 µM): 0.461
relative viability (NCI-H441; first compound 0.8 µM): 0.517
relative viability (NCI-H441; first compound 2.53 µM): 0.603
relative viability (NCI-H596; first compound 0.08 µM): 0.427
relative viability (NCI-H596; first compound 0.253 µM): 0.384
relative viability (NCI-H596; first compound 0.8 µM): 0.422
relative viability (NCI-H596; first compound 2.53 µM): 0.4
relative viability (NCI-H650; first compound 0.08 µM): 0.916
relative viability (NCI-H650; first compound 0.253 µM): 1.05
relative viability (NCI-H650; first compound 0.8 µM): 0.881
relative viability (NCI-H650; first compound 2.53 µM): 0.74
relative viability (NCI-H838; first compound 0.08 µM): 0.441
relative viability (NCI-H838; first compound 0.253 µM): 0.374
relative viability (NCI-H838; first compound 0.8 µM): 0.343
relative viability (NCI-H838; first compound 2.53 µM): 0.246
relative viability (SK-MES-1; first compound 0.08 µM): 0.401
relative viability (SK-MES-1; first compound 0.253 µM): 0.327
relative viability (SK-MES-1; first compound 0.8 µM): 0.415
relative viability (SK-MES-1; first compound 2.53 µM): 0.32
